According to patent US9944583B2, “Methods for ameliorating and preventing central nervous system inflammation” (THE REGENTS OF THE UNIVERSITY OF CALIFORNIA, priority 2007, dated 2018):
Entries after “also recorded” stand apart in the source; their conditions may differ.

What was measured:
Jak2 = Jak2 phosphorylation in cortical neurons exposed to IL-6; assay type: cell-based, mouse; details: IL-6 20 ng/ml, 1 h, absence of astrocytes
Description: Exposure of cortical neurons to IL-6 (20 ng/ml, 1 h in the absence of astrocytes) increased the phosphorylation of the protein kinase Jak2, which transduces the signal from the activated IL-6 receptor, as illustrated by the data shown in FIG. 34A. […] Prolonged exposure (24 h) to the interleukin increased production of superoxide (as determined by DHE oxidation) and increased the expression of Nox2 in neurons, as illustrated by the data shown in FIG. 34B. The role of Nox2 activation in the increase in DHE oxidation was confirmed by co-exposure to the Nox inhibitor apocynin (0.5 mM) (FIG. 34B bottom panels).
For FIGS. 34A-34B: primary neuronal cultures were developed on coverslips as described Kinney et al., 2006, supra. After 21 days in culture, coverslips containing neurons were separated from the astrocytic monolayers, washed in HCSS and subjected to IL-6 treatment for 1 hour (FIG. 34A) or treated with IL-6 for 24 h on top of the astrocyte monolayer (FIG. 34B). After treatment, the coverslips were fixed in paraformaldehyde and processed for double fluorescence immuno-cytochemistry using the following antibodies: anti-GAD67 (1:2000, Chemicon. Red) anti-phospho-Jak2 (1:100, Cell Signaling. Green), and anti-Nox2 (1:300, monoclonal 54.1 Green). […] Secondary antibodies were conjugated to ALEXAFLUOR 488™ (green fluorescence) and ALEXAFLUOR 568™ (red fluorescence).

NADPH oxidase = biological target: T1, NADPH oxidase (Mus musculus, UniProt Q61093); experiment: EPR superoxide production by forebrain synaptosomes exposed to IL-6; assay type: biochemical; details: IL-6 100 ng/ml, synaptosomes
T1 sequence (Q61093 1-570): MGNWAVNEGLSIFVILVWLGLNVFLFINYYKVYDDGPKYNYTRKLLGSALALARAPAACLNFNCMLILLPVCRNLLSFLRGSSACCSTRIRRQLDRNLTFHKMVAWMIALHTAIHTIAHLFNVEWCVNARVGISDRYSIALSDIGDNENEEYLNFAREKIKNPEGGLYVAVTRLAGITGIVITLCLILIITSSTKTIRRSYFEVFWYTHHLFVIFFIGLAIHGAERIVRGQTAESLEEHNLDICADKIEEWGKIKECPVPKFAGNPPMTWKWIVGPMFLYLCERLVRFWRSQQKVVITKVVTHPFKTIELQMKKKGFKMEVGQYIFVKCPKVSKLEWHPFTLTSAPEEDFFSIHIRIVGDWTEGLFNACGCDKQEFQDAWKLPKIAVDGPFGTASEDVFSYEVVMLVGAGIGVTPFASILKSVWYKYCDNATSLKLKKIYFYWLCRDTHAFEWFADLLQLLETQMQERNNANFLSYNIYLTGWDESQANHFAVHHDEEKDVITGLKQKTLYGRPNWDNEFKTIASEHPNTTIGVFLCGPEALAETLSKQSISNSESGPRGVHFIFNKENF
T1 sequence (Q61462 1-192 partner): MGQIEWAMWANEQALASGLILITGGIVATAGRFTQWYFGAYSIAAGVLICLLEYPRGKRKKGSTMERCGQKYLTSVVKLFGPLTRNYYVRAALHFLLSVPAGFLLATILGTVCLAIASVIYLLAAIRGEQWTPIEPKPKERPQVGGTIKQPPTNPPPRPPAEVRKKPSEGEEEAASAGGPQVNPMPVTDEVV

[1] = tested on: primary neuronal cultures; experiment: IL-6 exposure of primary neuronal cultures: oxidized DHE, Nox2, parvalbumin and GAD67; assay type: cell-based, mouse
Description: IL-6 increases superoxide in a Nox dependent manner, and reduces GAD67 and parvalbumin in primary cultures, as summarized by the data graphically presented in FIG. 18. […] As before, dihydroethidium (DHE) was applied for the last hour (DHE detects superoxide and hydrogen peroxide). After fixation, ICC for PV and GAD67 was carried out as described in methods and quantitative confocal microscopy was utilized for fluorescence analysis.
DHE (1 μg/ml) was added during the last hour of treatment. Images show the increase in Nox2 immunoreactivity and oxidized DHE upon treatment with IL-6. Bar-graphs show the results of quantification of oxidized DHE and Nox2 fluorescence expressed as % of control. […] Data are means±SEM. Baseline intensities: DHE=21±4.7; Nox2=18.7±2.6.
Fluorescence confocal images of representative fields depicting the expression of parvalbumin (PV) and GAD67 in PV-interneurons. Bar-graph represents the quantification of fluorescence expressed as % of control. […] Data are means±SEM. Baseline intensities: PV=135±32; GAD67=114±26.
IL-6 potentiates ketamine effects on PV-interneurons. […] After fixation, ICC for GAD67 and parvalbumin was carried out as described by Kinney (2006) J. Neurosci. […] N=3 cultures per condition.

Nox2 = experiment: IL-6 i.p. on two consecutive days in mice: brain and synaptosomal Nox; details: IL-6 5 μg/kg i.p. on two consecutive days
[2] = in vivo; cited from earlier work
[3] = IL-6 i.p. in young and old mice: plasma IL-6 (ELISA) and tolerability; assay type: in vivo
Description: Plasma IL-6 is increased with aging or after intraperitoneal (i.p.) administration of IL-6, as illustrated by data shown in FIG. 44. […] IL-6 was assayed by ELISA (R&D Systems, Minneapolis, Minn.). Mice were then given a direct intraperitoneal (IP) injection of 3 μg/kg IL-6 on two consecutive days, and plasma IL-6 was assayed 16 hours (hr) after the last injection. […] Since the half-life of IL-6 in plasma is 4 hr, the sustained increase in IL-6 after injection may indicate induction of new IL-6 synthesis in young mice, which may be suppressed by the high endogenous IL-6 levels in old mice.

[4] = tested on: PV-interneurons in mouse prefrontal cortex; experiment: two-day ketamine treatment of mice: oxidized DHE, parvalbumin and GAD67 in prefrontal cortex; assay type: in vivo; details: apocynin 5 mg/kg/day 1 week in drinking water; C3 1.0 mg/kg/day one month by mini-pumps
Description: Animals and treatments. […] Male C57BL6 mice were obtained from Jackson Labs, Bar Harbor, Me., at 8-12 weeks and housed in our facility until 15 weeks when they were used for experiments. Ketamine (30 mg/kg) was applied intraperitoneally (IP) on two consecutive days at around 4 pm. DHE was applied 30 min after the last ketamine injection as described (19, 20). Briefly, two serial i.p. injections of freshly prepared dihydroethidium (27 mg/kg) are given at 30 minute intervals. Eighteen hours later, mice are anesthetized with inhaled halothane, and perfused intracardially with cold saline followed by 4% paraformaldehyde in PBS. The Nox inhibitor, apocynin (5 mg/kg/day) was given in the drinking water for a total of seven days, with an assumed intake of […] H2O/mouse/day, and ketamine was applied on the last two days. […] All animal studies were approved by the Animal Care Program at the University of California, San Diego, and are in accordance the PHS Guide for the Care and Use of Laboratory Animals, USDA Regulations, and the AVMA Panel on Euthanasia.
Immunohistochemistry: Brains were frontally sliced in a vibratome into 50 μm coronal sections encompassing the prefrontal cortex region (from Bregma 2.0 to 1.3). Sequential slices were processed for floating-section double immunohistochemistry for the detection of parvalbumin and GAD67. Antigen retrieval was performed by incubation of the slices in 1% sodium borohydride for 15 min as described (see reference 34, below), followed by washing in PBS and incubation in 10% normal goat serum in PBS for 16 h at 4° C. Primary antibodies (Calbindin: 1:5000: Calretinin: 1:2000; Parvalbumin: 1:3000, all rabbit polyclonals from Swant, Bellinzona, Switzerland. GAD67: 1:1000, from Chemicon-Millipore, Temecula, Calif.) were diluted in 2% normal goat serum in PBS and applied to the slices for 18 h at 4° C., after which slices were washed in PBS and incubated in a 1:1000 dilution of ALEXAFLUOR™ (Molecular Probes, Invitrogen, Carlsbad, Calif.) conjugated goat anti-rabbit (568) or goat anti-mouse (488) antibodies for 1 hr at room temperature (rt). Slices were washed in PBS and mounted sequentially in glass slides using […]™ (Vector Laboratories, Burlingame, Calif.), covered with a coverslip and allowed to dry for at least 24 h before confocal imaging.
Six slices were analyzed per animal.
Analysis of superoxide and/or hydrogen peroxide production by confocal imaging of in vivo dihydroethidium (DHE) oxidation. Mice will be injected intraperitoneally (i.p.) with dihydroethidium.

[5] = tested on: primary neuronal cultures; experiment: DHE oxidation (superoxide and/or hydrogen peroxide production) in primary neuronal cultures exposed to ketamine; assay type: cell-based, mouse
[6] = tested on: pyramidal layer of CA1 in the aged hippocampus; experiment: in vivo superoxide production in CA1 of the aged hippocampus (DHE confocal imaging); parameters: species or system mouse; details: old mice; C3 by oral administration; apocynin
Description: Analysis of superoxide and/or hydrogen peroxide production by confocal imaging of in vivo dihydroethidium (DHE) oxidation. Mice will be injected intraperitoneally (i.p.) with dihydroethidium. Briefly, two serial i.p. injections of freshly prepared dihydroethidium (27 mg/kg) are given at 30 minute intervals. Eighteen hours later, mice are anesthetized with inhaled halothane, and are perfused intracardially with cold saline followed by 4% paraformaldehyde in PBS. Brains are removed and post-fixed in 2% paraformaldehyde for >24 h. Following fixation, brains are cut into 50 μm coronal sections and co-labeled with the appropriate primary and secondary antibodies for fluorescence visualization. […] First, an image is taken in the fluorescence channel of the ICC-fluorophor and then the channel is switched to image fluorescence from DHE oxidation. […] Using the image pairs for each field and MetaMorph software, an analyst blind to the group circles the outline of each ICC-labeled cell and then switches to the DHE oxidation image. The average fluorescence intensity for each cell of interest is logged, and values averaged to determine the mean fluorescence/cell.

PV-interneurons [7] = experiment: PV-interneuron counts in old mice after long-term SOD-mimetic treatment; assay type: in vivo, mouse; details: treatment of animals from middle age (OM+C3)
Description: Aging was accompanied by a statistically significant decrease in PV-interneuron number in all regions analyzed, as shown in FIG. 41B. […] Statistical significance was determined by ANOVA followed by Tukey's test.

PV-interneurons [8] = experiment: parvalbumin and GAD67 immunoreactivity in PV-interneurons in primary neuronal cultures; details: co-exposure with ketamine 24 h; muscimol 10 μM, C3, apocynin 0.5 mM

Substance: IL-6: pro-inflammatory cytokine interleukin-6
- phosphorylation of Jak2 (Jak2): increased
- superoxide production (EPR, DEPMPO) (NADPH oxidase): small but significant increase
- immunoreactivity of GAD67 and parvalbumin in PV-interneurons ([1]; IL-6 10 ng/ml, 24 h): decreased
- levels of DHE oxidation ([1]; IL-6 10 ng/ml, 24 h): increased
- effect on parvalbumin and GAD67 immunoreactivity with sub-threshold ketamine ([1]; IL-6 10 ng/ml, ketamine, 24 h): increased the effects of ketamine
- expression of Nox2 ([1]; IL-6, 24 hours): pronounced increase
- Nox activity in synaptosomal preparations (Nox2): significant induction
- half-life in plasma [2]: 4 h
- plasma IL-6 16 hr after the last injection ([3]; 3 μg/kg IL-6 i.p. on two consecutive days): increased plasma IL-6 in young, but not old, mice
- tolerability of higher doses ([3]; IL-6 12 μg/kg): induced the sickness response and generalized inflammatory reaction

Substance: tris malonic acid C60 [C3]
- effect on ketamine-induced increase in oxidized DHE in vivo [4]: prevented
- effect on ketamine-mediated loss of parvalbumin immunoreactivity in PV-interneurons in vivo [4]: completely prevented
- effect on ketamine-mediated increase in ROS / free radical production (DHE fluorescence) [5]: prevented
- effect on ketamine-mediated increase in oxidized DHE [5]: prevented
- effect on elevated levels of superoxide in the pyramidal layer of CA1 in the aged hippocampus [6]: prevented
- effect on age-related reduction of PV-interneuron numbers (PV-interneurons [7]): prevented the reduction of PV-interneuron numbers in CA1 and CA3, but not in DG
- effect on ketamine-mediated loss of parvalbumin and GAD67 immunoreactivity in PV-interneurons (PV-interneurons [8]): prevented; also recorded: attenuated
